Experimental data taken from US20210186960A1, “MODULATORS OF INDOLEAMINE 2,3-DIOXYGENASE” (GLAXOSMITHKLINE INTELLECTUAL PROPERTY DEVELOPMENT LIMITED, priority 2017, published 2021).
Read-outs that look alike come from different tables or passages of the source.

Assay: Plasma PK and tissue distribution after oral dosing of INTERMEDIATE C4 (3 mg/kg)
Assay type: in vivo
Settings: PO 3 mg/kg INTERMEDIATE C4, male Wistar Han rat; for Kp at 1 h / Kp at 4 h / Kp at 8 h / Kp / concentration at 1 h / concentration at 4 h / concentration at 8 h: male, Wistar Han, rat, po
Method: Tissue Distribution of drug intermediate C4 from oral dosing of C4 and of intermediate C4 from oral dosing of example 7 in rats
• Wistar Han rat, 185-197 g, male, N=8, purchased from Beijing Vital River Co. LTD. Qualification No.: SCXK(J) 2016-0011 11400700240027. Fasted overnight and fed 4 hr post dose. PO: 3 mg/kg (10 mL/kg) via oral gavage(N=8). Sampling at 1, 4, 8 and 24 hr , 4 time points, terminal bleeding for plasma, liver, lymph nodes and spleen collected at each time point.

CC(C)CN(c1ccc([C@H](C)CC(=O)O)cc1Nc1cnc(Cl)cn1)C1CCOCC1 [intermediate C4]
Liver to plasma ratio individual (1 hr, 3 mg/kg): 8.11
Lymph node to plasma ratio individual (1 hr, 3 mg/kg): 0.254
Spleen to plasma ratio individual (1 hr, 3 mg/kg): 0.197
liver Concentration individual (1 hr, 3 mg/kg): 2570 ng/g
lymph node Concentration individual (1 hr, 3 mg/kg): 80.4 ng/g
plasma Concentration individual (1 hr, 3 mg/kg): 317 ng/mL
spleen Concentration individual (1 hr, 3 mg/kg): 62.4 ng/g
Liver to plasma ratio individual (4 hr, 3 mg/kg): 14.7
Lymph node to plasma ratio individual (4 hr, 3 mg/kg): 0.905
Spleen to plasma ratio individual (4 hr, 3 mg/kg): 0.333
liver Concentration individual (4 hr, 3 mg/kg): 898 ng/g
lymph node Concentration individual (4 hr, 3 mg/kg): 55.4 ng/g
plasma Concentration individual (4 hr, 3 mg/kg): 61.2 ng/mL
spleen Concentration individual (4 hr, 3 mg/kg): 20.4 ng/g
spleen Concentration Mean (8 hr): BQL
spleen Concentration individual (8 hr): BQL
Liver to plasma ratio individual (8 hr, 3 mg/kg): 13.2
liver Concentration individual (8 hr, 3 mg/kg): 299 ng/g
lymph node Concentration individual (8 hr, 3 mg/kg): BQL
plasma Concentration individual (8 hr, 3 mg/kg): 22.7 ng/mL
liver Concentration Mean (24 hr): BQL
liver Concentration individual (24 hr): BQL
lymph node Concentration Mean (24 hr): BQL
lymph node Concentration individual (24 hr): BQL
plasma Concentration Mean (24 hr): BQL
plasma Concentration individual (24 hr): BQL
spleen Concentration Mean (24 hr): BQL
spleen Concentration individual (24 hr): BQL
AUC(0-t) (liver, read-out: AUClast (liver)): 10200 ng·h/mL
AUC(0-t) (lymph node, read-out: AUClast (lymph node)): 381 ng·h/mL
Kp at 1 h (liver / plasma, 3 mg/kg, 1 hr, read-out: Liver to plasma ratio Mean): 9.31
Kp at 1 h (liver / plasma, 3 mg/kg, 1 hr, read-out: Liver to plasma ratio individual): 10.5
Kp at 4 h (liver / plasma, 3 mg/kg, 4 hr, read-out: Liver to plasma ratio Mean): 13.7
Kp at 4 h (liver / plasma, 3 mg/kg, 4 hr, read-out: Liver to plasma ratio individual): 12.7
Kp at 8 h (liver / plasma, 3 mg/kg, 8 hr, read-out: Liver to plasma ratio Mean): 14.6
Kp at 8 h (liver / plasma, 3 mg/kg, 8 hr, read-out: Liver to plasma ratio individual): 16
Kp (liver / plasma, 3 mg/kg, read-out: AUCliver/AUCplasma): 10.7
concentration at 1 h (liver, 3 mg/kg, 1 hr, read-out: liver Concentration Mean): 3130 ng/g
concentration at 1 h (liver, 3 mg/kg, 1 hr, read-out: liver Concentration individual): 3690 ng/g
concentration at 4 h (liver, 3 mg/kg, 4 hr, read-out: liver Concentration Mean): 883 ng/g
concentration at 4 h (liver, 3 mg/kg, 4 hr, read-out: liver Concentration individual): 868 ng/g
concentration at 8 h (liver, 3 mg/kg, 8 hr, read-out: liver Concentration Mean): 420 ng/g
concentration at 8 h (liver, 3 mg/kg, 8 hr, read-out: liver Concentration individual): 540 ng/g
Kp at 1 h (lymph node / plasma, 3 mg/kg, 1 hr, read-out: Lymph node to plasma ratio Mean): 0.293
Kp at 1 h (lymph node / plasma, 3 mg/kg, 1 hr, read-out: Lymph node to plasma ratio individual): 0.333
Kp at 4 h (lymph node / plasma, 3 mg/kg, 4 hr, read-out: Lymph node to plasma ratio Mean): 0.716
Kp at 4 h (lymph node / plasma, 3 mg/kg, 4 hr, read-out: Lymph node to plasma ratio individual): 0.526
Kp at 8 h (lymph node / plasma, 3 mg/kg, 8 hr, read-out: Lymph node to plasma ratio Mean): 0.353
Kp at 8 h (lymph node / plasma, 3 mg/kg, 8 hr, read-out: Lymph node to plasma ratio individual): 0.353
Kp (lymph node / plasma, 3 mg/kg, read-out: AUClimphnode/AUCplasma): 0.401
concentration at 1 h (lymph node, 3 mg/kg, 1 hr, read-out: lymph node Concentration Mean): 98.7 ng/g
concentration at 1 h (lymph node, 3 mg/kg, 1 hr, read-out: lymph node Concentration individual): 117 ng/g
concentration at 4 h (lymph node, 3 mg/kg, 4 hr, read-out: lymph node Concentration Mean): 45.7 ng/g
concentration at 4 h (lymph node, 3 mg/kg, 4 hr, read-out: lymph node Concentration individual): 35.9 ng/g
concentration at 8 h (lymph node, 3 mg/kg, 8 hr, read-out: lymph node Concentration Mean): 11.9 ng/g
concentration at 8 h (lymph node, 3 mg/kg, 8 hr, read-out: lymph node Concentration individual): 11.9 ng/g
concentration at 1 h (plasma, 3 mg/kg, 1 hr, read-out: plasma Concentration Mean): 334 ng/mL
concentration at 1 h (plasma, 3 mg/kg, 1 hr, read-out: plasma Concentration individual): 351 ng/mL
concentration at 4 h (plasma, 3 mg/kg, 4 hr, read-out: plasma Concentration Mean): 64.7 ng/mL
concentration at 4 h (plasma, 3 mg/kg, 4 hr, read-out: plasma Concentration individual): 68.2 ng/mL
concentration at 8 h (plasma, 3 mg/kg, 8 hr, read-out: plasma Concentration Mean): 28.2 ng/mL
concentration at 8 h (plasma, 3 mg/kg, 8 hr, read-out: plasma Concentration individual): 33.7 ng/mL
concentration at 1 h (spleen, 3 mg/kg, 1 hr, read-out: spleen Concentration Mean): 63.9 ng/g
concentration at 1 h (spleen, 3 mg/kg, 1 hr, read-out: spleen Concentration individual): 65.3 ng/g
concentration at 4 h (spleen, 3 mg/kg, 4 hr, read-out: spleen Concentration Mean): 19.9 ng/g
concentration at 4 h (spleen, 3 mg/kg, 4 hr, read-out: spleen Concentration individual): 19.3 ng/g
Kp at 1 h (spleen/plasma, 3 mg/kg, 1 hr, read-out: Spleen to plasma ratio Mean): 0.191
Kp at 1 h (spleen/plasma, 3 mg/kg, 1 hr, read-out: Spleen to plasma ratio individual): 0.186
Kp at 4 h (spleen/plasma, 3 mg/kg, 4 hr, read-out: Spleen to plasma ratio Mean): 0.308
Kp at 4 h (spleen/plasma, 3 mg/kg, 4 hr, read-out: Spleen to plasma ratio individual): 0.283
Kp (spleen/plasma, 3 mg/kg, read-out: AUCspleen/AUCplasma): 0.166
AUC(0-inf) (plasma, mean): 1030 ng·h/mL
Cmax (plasma, mean): 334 ng/mL
Tmax (plasma, mean): 1 h
AUC(0-t) (plasma, mean, read-out: AUClast): 951 ng·h/mL
half-life (plasma, mean, read-out: Terminal t1/2 (converted)): 2.01 h
AUC(0-t) (spleen, read-out: AUClast (spleen)): 157 ng·h/mL
